# In US10414811B2, “Protease-resistant lipidated GLP-1 analogs” (MEDIMMUNE LIMITED, priority 2015, dated 2019):
# Read-outs that look alike come from different tables or passages of the source. Numbered stars: 1 amine (or outer) side, 2 acyl side, 3 side chain; on linkers, the order of the positions; unused ones are H or OH. Square brackets hold non-standard residues; d marks the D form. Side chains are listed from the residue outwards. Peptide text beside a SMILES is read from it. * marks the point of attachment. γGlu = O=C(O)[C@H](CCC(=O)[*:2])N[*:1]; Palmitoyl = CCCCCCCCCCCCCCCC(=O)*; αMeF = C[C@](N)(Cc1ccccc1)C(=O)O; αMeK = C[C@](N)(CCCCN)C(=O)O; αMeS = C[C@](N)(CO)C(=O)O; Aib = CC(C)(N)C(=O)O
# Key:
# Format in all cases: cell-based
# [1] = biological target: T1, human GLP-1 receptor (GLP-1R) (Homo sapiens, UniProt P43220); experiment: cAMP assay, human GLP-1R cells
# T1 construct: expressed in transfected cells
# T1 sequence (P43220 24-463): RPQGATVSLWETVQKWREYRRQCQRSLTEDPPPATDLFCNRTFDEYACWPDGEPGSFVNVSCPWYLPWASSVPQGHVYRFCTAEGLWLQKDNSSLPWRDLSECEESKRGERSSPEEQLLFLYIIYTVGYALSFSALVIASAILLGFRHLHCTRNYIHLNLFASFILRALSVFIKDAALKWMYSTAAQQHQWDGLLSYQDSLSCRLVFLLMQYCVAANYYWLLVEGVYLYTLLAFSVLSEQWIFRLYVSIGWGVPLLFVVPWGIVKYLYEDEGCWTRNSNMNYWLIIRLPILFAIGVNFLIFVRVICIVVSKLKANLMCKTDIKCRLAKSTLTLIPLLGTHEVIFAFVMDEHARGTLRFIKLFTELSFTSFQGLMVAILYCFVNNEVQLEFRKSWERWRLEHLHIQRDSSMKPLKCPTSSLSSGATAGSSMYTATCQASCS
# Outline: (§1)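 Peptide-stimulated cAMP measured by two-step HTRF after a 30 min room-temperature incubation with receptor-expressing cells (hGLP-1R, hGIPR at 1×10^5 cells/ml; hGCGR at 2×10^5 cells/ml). Duplicate dilutions; EC50 from 4-parameter logistic fit of % Delta F.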
# [2] = biological target: T2, human glucose-dependent insulinotropic peptide receptor (GIPR) (Homo sapiens, UniProt P48546); experiment: cAMP assay, human GIPR cells; settings: cAMP assay
# T2 construct: expressed in transfected cells
# T2 sequence (P48546 22-466): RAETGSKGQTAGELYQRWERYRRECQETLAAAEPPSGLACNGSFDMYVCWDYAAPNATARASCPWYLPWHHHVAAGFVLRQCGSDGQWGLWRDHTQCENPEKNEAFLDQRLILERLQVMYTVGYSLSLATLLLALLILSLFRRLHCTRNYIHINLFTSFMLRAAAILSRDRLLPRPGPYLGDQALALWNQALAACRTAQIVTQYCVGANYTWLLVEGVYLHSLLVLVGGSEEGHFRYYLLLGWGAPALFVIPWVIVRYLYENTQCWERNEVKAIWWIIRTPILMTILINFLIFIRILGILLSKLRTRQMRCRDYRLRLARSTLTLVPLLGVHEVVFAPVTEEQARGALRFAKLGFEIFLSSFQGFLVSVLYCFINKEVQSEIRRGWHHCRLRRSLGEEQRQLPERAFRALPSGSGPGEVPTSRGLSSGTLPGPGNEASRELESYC
# Outline: as §1
# [3] = biological target: T3, human glucagon receptor (GCGR) (Homo sapiens, UniProt P47871); experiment: cAMP assay, human GCGR cells; settings: cAMP assay
# T3 construct: expressed in transfected cells
# T3 sequence (P47871 26-477): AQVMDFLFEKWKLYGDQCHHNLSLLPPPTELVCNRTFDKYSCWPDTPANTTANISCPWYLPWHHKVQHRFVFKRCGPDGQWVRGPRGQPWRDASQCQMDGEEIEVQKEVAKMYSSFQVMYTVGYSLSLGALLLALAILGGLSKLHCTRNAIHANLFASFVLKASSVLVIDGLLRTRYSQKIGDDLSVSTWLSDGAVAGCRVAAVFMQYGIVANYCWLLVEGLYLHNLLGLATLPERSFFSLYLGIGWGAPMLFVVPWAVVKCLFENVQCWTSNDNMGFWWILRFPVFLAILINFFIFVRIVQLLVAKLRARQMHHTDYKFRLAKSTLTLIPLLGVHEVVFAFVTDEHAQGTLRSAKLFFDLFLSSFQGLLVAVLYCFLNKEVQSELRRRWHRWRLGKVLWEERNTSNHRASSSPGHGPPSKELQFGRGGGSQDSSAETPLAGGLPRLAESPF
# Outline: as §1
# [4] = cAMP assay, first determination (n1), read-out: Primary assay EC50 GLP-1R n1
# [5] = cAMP assay, second determination (n2), read-out: Primary assay EC50 GLP-1R n2
# [6] = mean of n1 and n2, read-out: Mean pM GLP-1R
# [7] = first determination (n1), read-out: Primary assay EC50 GIP-R (n1)
# [8] = second determination (n2), read-out: Primary assay EC50 GIP-R (n2)
# [9] = first determination (n1), read-out: Primary assay EC50 Gluc-R (n1)
# [10] = second determination (n2), read-out: Primary assay EC50 Gluc-R (n2)
Compound,"EC50 [1, 4] [pM]","EC50 [1, 5] [pM]","EC50 [1, 6] [pM]","EC50 [2, 7] [nM]","EC50 [2, 8] [nM]","EC50 [3, 9] [nM]","EC50 [3, 10] [nM]"
CCCCCCCCCCCCCCCC(=O)N[C@@H](CCC(=O)NCCCC[C@H](NC(=O)[C@@H](NC(=O)[C@](C)(Cc1ccccc1)NC(=O)[C@H](CO)NC(=O)CNC(=O)[C@H](CCC(=O)O)NC(=O)C(C)(C)NC(=O)[C@@H](N)Cc1c[nH]cn1)[C@@H](C)O)C(=O)N[C@@H](CC(=O)O)C(=O)N[C@H](C(=O)N[C@@](C)(CO)C(=O)N[C@@H](CO)C(=O)N[C@@](C)(Cc1ccccc1)C(=O)N[C@@H](CC(C)C)C(=O)N[C@@H](CCC(=O)O)C(=O)NCC(=O)N[C@@H](CCC(=O)O)C(=O)N[C@@H](C)C(=O)N[C@@H](C)C(=O)N[C@@](C)(CCCCN)C(=O)N[C@@H](CCC(=O)O)C(=O)N[C@@](C)(Cc1ccccc1)C(=O)N[C@H](C(=O)N[C@@H](C)C(=O)N[C@@](C)(Cc1ccccc1)C(=O)N[C@H](C(=O)N[C@H](C(=O)N[C@@](C)(CCCCN)C(=O)NCC(=O)NCC(N)=O)C(C)C)C(C)C)[C@@H](C)CC)C(C)C)C(=O)O [compound 92] (H-H[Aib]EGS[αMeF]TK([γGlu-Palmitoyl])DV[αMeS]S[αMeF]LEGEAA[αMeK]E[αMeF]IA[αMeF]VV[αMeK]GG-NH2; N-terminus assumed),450,390,423,≥ 28,≥ 28,≥ 28,≥ 28
CCCCCCCCCCCCCCCC(=O)N[C@@H](CCC(=O)NCCCC[C@H](NC(=O)[C@H](CCC(=O)O)NC(=O)C(C)(C)NC(=O)[C@@H](N)Cc1c[nH]cn1)C(=O)N[C@@H](CO)C(=O)N[C@@](C)(Cc1ccccc1)C(=O)N[C@H](C(=O)N[C@@H](CO)C(=O)N[C@@H](CC(=O)O)C(=O)N[C@H](C(=O)N[C@@](C)(CO)C(=O)N[C@@H](CO)C(=O)N[C@@](C)(Cc1ccccc1)C(=O)N[C@@H](CC(C)C)C(=O)N[C@@H](CCC(=O)O)C(=O)NCC(=O)N[C@@H](CCC(=O)O)C(=O)N[C@@H](C)C(=O)N[C@@H](C)C(=O)N[C@@](C)(CCCCN)C(=O)N[C@@H](CCC(=O)O)C(=O)N[C@@](C)(Cc1ccccc1)C(=O)N[C@H](C(=O)N[C@@H](C)C(=O)N[C@@](C)(Cc1ccccc1)C(=O)N[C@H](C(=O)N[C@H](C(=O)N[C@@](C)(CCCCN)C(=O)NCC(=O)NCC(N)=O)C(C)C)C(C)C)[C@@H](C)CC)C(C)C)[C@@H](C)O)C(=O)O [compound 96] (H-H[Aib]EK([γGlu-Palmitoyl])S[αMeF]TSDV[αMeS]S[αMeF]LEGEAA[αMeK]E[αMeF]IA[αMeF]VV[αMeK]GG-NH2; N-terminus assumed),920,570,746,≥ 27,≥ 27,≥ 27,≥ 27
CCCCCCCCCCCCCCCC(=O)N[C@@H](CCC(=O)NCCCC[C@H](NC(=O)C(C)(C)NC(=O)[C@@H](N)Cc1c[nH]cn1)C(=O)NCC(=O)N[C@@H](CO)C(=O)N[C@@](C)(Cc1ccccc1)C(=O)N[C@H](C(=O)N[C@@H](CO)C(=O)N[C@@H](CC(=O)O)C(=O)N[C@H](C(=O)N[C@@](C)(CO)C(=O)N[C@@H](CO)C(=O)N[C@@](C)(Cc1ccccc1)C(=O)N[C@@H](CC(C)C)C(=O)N[C@@H](CCC(=O)O)C(=O)NCC(=O)N[C@@H](CCC(=O)O)C(=O)N[C@@H](C)C(=O)N[C@@H](C)C(=O)N[C@@](C)(CCCCN)C(=O)N[C@@H](CCC(=O)O)C(=O)N[C@@](C)(Cc1ccccc1)C(=O)N[C@H](C(=O)N[C@@H](C)C(=O)N[C@@](C)(Cc1ccccc1)C(=O)N[C@H](C(=O)N[C@H](C(=O)N[C@@](C)(CCCCN)C(=O)NCC(=O)NCC(N)=O)C(C)C)C(C)C)[C@@H](C)CC)C(C)C)[C@@H](C)O)C(=O)O [compound 97] (H-H[Aib]K([γGlu-Palmitoyl])GS[αMeF]TSDV[αMeS]S[αMeF]LEGEAA[αMeK]E[αMeF]IA[αMeF]VV[αMeK]GG-NH2; N-terminus assumed),≥ 28000,≥ 28000,≥ 27800,≥ 28,≥ 28,≥ 28,≥ 28
CCCCCCCCCCCCCCCC(=O)N[C@@H](CCC(=O)NCCCC[C@H](NC(=O)[C@@H](N)Cc1c[nH]cn1)C(=O)N[C@@H](CCC(=O)O)C(=O)NCC(=O)N[C@@H](CO)C(=O)N[C@@](C)(Cc1ccccc1)C(=O)N[C@H](C(=O)N[C@@H](CO)C(=O)N[C@@H](CC(=O)O)C(=O)N[C@H](C(=O)N[C@@](C)(CO)C(=O)N[C@@H](CO)C(=O)N[C@@](C)(Cc1ccccc1)C(=O)N[C@@H](CC(C)C)C(=O)N[C@@H](CCC(=O)O)C(=O)NCC(=O)N[C@@H](CCC(=O)O)C(=O)N[C@@H](C)C(=O)N[C@@H](C)C(=O)N[C@@](C)(CCCCN)C(=O)N[C@@H](CCC(=O)O)C(=O)N[C@@](C)(Cc1ccccc1)C(=O)N[C@H](C(=O)N[C@@H](C)C(=O)N[C@@](C)(Cc1ccccc1)C(=O)N[C@H](C(=O)N[C@H](C(=O)N[C@@](C)(CCCCN)C(=O)NCC(=O)NCC(N)=O)C(C)C)C(C)C)[C@@H](C)CC)C(C)C)[C@@H](C)O)C(=O)O [compound 98],≥ 28000,≥ 28000,≥ 27500,≥ 28,≥ 28,≥ 28,≥ 28

# The next lines start with the values.
"EC50 [1, 4] [pM]","EC50 [1, 5] [pM]","EC50 [1, 6] [pM]","EC50 [2, 7] [nM]","EC50 [2, 8] [nM]","EC50 [3, 9] [nM]","EC50 [3, 10] [nM]",Compound
450,650,548,≥ 28,≥ 28,≥ 28,≥ 28,CCCCCCCCCCCCCCCC(=O)N[C@@H](CCC(=O)NCCCC[C@H](NC(=O)[C@@H](NC(=O)[C@H](CC(=O)O)NC(=O)[C@H](CO)NC(=O)[C@@H](NC(=O)[C@](C)(Cc1ccccc1)NC(=O)[C@H](CO)NC(=O)CNC(=O)[C@H](CCC(=O)O)NC(=O)C(C)(C)NC(=O)[C@@H](N)Cc1c[nH]cn1)[C@@H](C)O)C(C)C)C(=O)N[C@@H](CO)C(=O)N[C@@](C)(Cc1ccccc1)C(=O)N[C@@H](CC(C)C)C(=O)N[C@@H](CCC(=O)O)C(=O)NCC(=O)N[C@@H](CCC(=O)O)C(=O)N[C@@H](C)C(=O)N[C@@H](C)C(=O)N[C@@](C)(CCCCN)C(=O)N[C@@H](CCC(=O)O)C(=O)N[C@@](C)(Cc1ccccc1)C(=O)N[C@H](C(=O)N[C@@H](C)C(=O)N[C@@](C)(Cc1ccccc1)C(=O)N[C@H](C(=O)N[C@H](C(=O)N[C@@](C)(CCCCN)C(=O)NCC(=O)NCC(N)=O)C(C)C)C(C)C)[C@@H](C)CC)C(=O)O [compound 89]
140,320,228,≥ 28,≥ 28,≥ 28,≥ 28,CCCCCCCCCCCCCCCC(=O)N[C@@H](CCC(=O)NCCCC[C@H](NC(=O)[C@H](CO)NC(=O)CNC(=O)[C@H](CCC(=O)O)NC(=O)C(C)(C)NC(=O)[C@@H](N)Cc1c[nH]cn1)C(=O)N[C@H](C(=O)N[C@@H](CO)C(=O)N[C@@H](CC(=O)O)C(=O)N[C@H](C(=O)N[C@@](C)(CO)C(=O)N[C@@H](CO)C(=O)N[C@@](C)(Cc1ccccc1)C(=O)N[C@@H](CC(C)C)C(=O)N[C@@H](CCC(=O)O)C(=O)NCC(=O)N[C@@H](CCC(=O)O)C(=O)N[C@@H](C)C(=O)N[C@@H](C)C(=O)N[C@@](C)(CCCCN)C(=O)N[C@@H](CCC(=O)O)C(=O)N[C@@](C)(Cc1ccccc1)C(=O)N[C@H](C(=O)N[C@@H](C)C(=O)N[C@@](C)(Cc1ccccc1)C(=O)N[C@H](C(=O)N[C@H](C(=O)N[C@@](C)(CCCCN)C(=O)NCC(=O)NCC(N)=O)C(C)C)C(C)C)[C@@H](C)CC)C(C)C)[C@@H](C)O)C(=O)O [compound 94]
260,190,224,≥ 28,≥ 28,≥ 28,≥ 28,CCCCCCCCCCCCCCCC(=O)N[C@@H](CCC(=O)NCCCC[C@H](NC(=O)CNC(=O)[C@H](CCC(=O)O)NC(=O)C(C)(C)NC(=O)[C@@H](N)Cc1c[nH]cn1)C(=O)N[C@@](C)(Cc1ccccc1)C(=O)N[C@H](C(=O)N[C@@H](CO)C(=O)N[C@@H](CC(=O)O)C(=O)N[C@H](C(=O)N[C@@](C)(CO)C(=O)N[C@@H](CO)C(=O)N[C@@](C)(Cc1ccccc1)C(=O)N[C@@H](CC(C)C)C(=O)N[C@@H](CCC(=O)O)C(=O)NCC(=O)N[C@@H](CCC(=O)O)C(=O)N[C@@H](C)C(=O)N[C@@H](C)C(=O)N[C@@](C)(CCCCN)C(=O)N[C@@H](CCC(=O)O)C(=O)N[C@@](C)(Cc1ccccc1)C(=O)N[C@H](C(=O)N[C@@H](C)C(=O)N[C@@](C)(Cc1ccccc1)C(=O)N[C@H](C(=O)N[C@H](C(=O)N[C@@](C)(CCCCN)C(=O)NCC(=O)NCC(N)=O)C(C)C)C(C)C)[C@@H](C)CC)C(C)C)[C@@H](C)O)C(=O)O [compound 95] (H-H[Aib]EGK([γGlu-Palmitoyl])[αMeF]TSDV[αMeS]S[αMeF]LEGEAA[αMeK]E[αMeF]IA[αMeF]VV[αMeK]GG-NH2; N-terminus assumed)
